# System: anti-VGKC complex antibody positive patient with fibromyalgia
# Assay: Pain-relieving experiment by an anticonvulsant agent (patient pain VAS)
# Assay type: in vivo, human
# Details: patient B; clonazepam 1.5 mg orally; non-depression type fibromyalgia, anti-VGKC complex antibody more than 100 pM
# Excerpt: Pain-relieving experiments by an anticonvulsant agent for each anti-VGKC complex antibody positive patient with fibromyalgia
# It is considered that the pain can be relieved by an anticonvulsant agent for an anti-VGKC complex antibody positive patient with fibromyalgia. Thus, for 3 patients (to whom a level of anti-VGKC complex antibody of more than 100 pM was detected) among 4 anti-VGKC complex antibody positive patients with fibromyalgia in Example 1, a pain-relieving experiment by an anticonvulsant agent for an anti-VGKC complex antibody positive patient with fibromyalgia was conducted. These patients were patients with fibromyalgia of non-depression type.
# To patient A, gabapentine 900 mg and clonazepam 0.5 mg were orally administered. As a result, the value of patient pain VAS was reduced to 40 based on 100 before administration.
# To patient B, clonazepam 1.5 mg was orally administered. As a result, the value of patient pain VAS was reduced to 30 based on 100 before administration.
# To patient C, gabapentine 1600 mg and clonazepam 1.0 mg were orally administered. As a result, the value of patient pain VAS was reduced to 20 based on 100 before administration.
compound,measurement,value
O=C1CN=C(c2ccccc2Cl)c2cc([N+](=O)[O-])ccc2N1 [clonazepam],"value of patient pain VAS after administration, based on 100 before administration",30
